Test results: ChEMBL document CHEMBL3994669, “Curcumin May (Not) Defy Science” (2017)

Experiments:
Assay type in all cases: functional
[1] = system: Homo sapiens; test: Antirheumatoid arthritic activity in patient assessed as disease activity score at 50 mg, po bid for 8 weeks (reference value: 6.72 +/- 0.87)
[2] = system: Homo sapiens; test: Antirheumatoid arthritic activity in patient assessed as visual analogue scale at 50 mg, po bid for 8 weeks (reference value: 78.25 +/- 11.25)
[3] = system: Homo sapiens; test: Anti-inflammatory activity in COPD patient assessed as change in forced expiratory volume in 1 second at 90 mg, po bid for 24 weeks (-3.6%)
[4] = system: Homo sapiens; test: Antirheumatoid arthritic activity in patient assessed as disease activity score at 500 mg, po bid for 8 weeks (reference value: 6.4 +/- 0.73)
[5] = system: Homo sapiens; test: Antirheumatoid arthritic activity in patient assessed as disease activity score at 500 mg, po bid for 8 weeks in presence of diclofenac sodium (reference value: 6.44 +/- 0.51)
[6] = system: Homo sapiens; test: Antirheumatoid arthritic activity in patient assessed as visual analogue scale at 500 mg, po bid for 8 weeks (reference value: 68.57 +/- 17.14)
[7] = system: Homo sapiens; test: Antirheumatoid arthritic activity in patient assessed as visual analogue scale at 500 mg, po bid for 8 weeks in presence of diclofenac sodium (reference value: 77.25 +/- 9.65)
[8] = system: Homo sapiens; test: Anti-inflammatory activity in COPD patient assessed as change in BMI at 90 mg, po bid for 24 weeks (reference value: -0.7%)
[9] = system: Homo sapiens; test: Anti-inflammatory activity in COPD patient assessed as change in SBP at 90 mg, po bid for 24 weeks (reference value: 1.4%)
[10] = system: Homo sapiens; test: Anti-inflammatory activity in COPD patient assessed as change in DBP at 90 mg, po bid for 24 weeks (reference value: 2.9%)
[11] = system: Homo sapiens; test: Anti-inflammatory activity in COPD patient assessed as change in HbA1c level at 90 mg, po bid for 24 weeks relative to placebo treated control
[12] = system: Homo sapiens; test: Anti-inflammatory activity in COPD patient assessed as change in blood sugar level at 90 mg, po bid for 24 weeks (14.5%)
[13] = system: Homo sapiens; test: Anti-inflammatory activity in COPD patient assessed as change in triglyceride level at 90 mg, po bid for 24 weeks (14.5%)
[14] = system: Homo sapiens; test: Anti-inflammatory activity in COPD patient assessed as change in LDL-C level at 90 mg, po bid for 24 weeks (11.4%)
[15] = system: Homo sapiens; test: Anti-inflammatory activity in COPD patient assessed as change in HDL-C level at 90 mg, po bid for 24 weeks (2%)
[16] = system: Homo sapiens; test: Anti-inflammatory activity in COPD patient assessed as change in uric acid level at 90 mg, po bid for 24 weeks (2.3%)
[17] = system: Homo sapiens; test: Anti-inflammatory activity in COPD patient assessed as change in gammaGTP level at 90 mg, po bid for 24 weeks (-1.2%)
[18] = system: Homo sapiens; test: Anti-inflammatory activity in COPD patient assessed as change in creatinine level at 90 mg, po bid for 24 weeks (1.4%)
[19] = system: Homo sapiens; test: Anti-inflammatory activity in COPD patient assessed as change in C-reactive protein level at 90 mg, po bid for 24 weeks (11.1%)
[20] = system: Homo sapiens; test: Anti-inflammatory activity in COPD patient assessed as change in SAA-LDL level at 90 mg, po bid for 24 weeks (10.8%)
[21] = system: Homo sapiens; test: Anti-inflammatory activity in COPD patient assessed as change in AT-LDL level at 90 mg, po bid for 24 weeks (14.8%)

Work on `O=C([O-])Cc1ccccc1Nc1c(Cl)cccc1Cl.[Na+]` [DICLOFENAC SODIUM] yielded an Activity [1] of 3.89 and an Activity [2] of 39.17.

For `COc1cc(/C=C/C(=O)CC(=O)/C=C/c2ccc(O)c(OC)c2)ccc1O` [CURCUMIN], the Activity [3] was -1.9%, the Activity [4] was 3.55 and the Activity [5] was 3.58. For the same molecule, the Activity [6] was 27.5, the Activity [7] was 34.29 and the Activity [8] was 0.9%. For the same molecule, the Activity [9] was -1.3%, the Activity [10] was 3.5% and the Activity [11] was 0.4%. For the same molecule, the Activity [12] was 5.8%, the Activity [13] was 9.2% and the Activity [14] was 4.6%. It also gave an Activity [15] of -2.8%, an Activity [16] of 2.4% and an Activity [17] of -5.7%. For the same molecule, the Activity [18] was 2.9%, the Activity [19] was -12.5% and the Activity [20] was -2%. For the same molecule, the Activity [21] was -1.6%.
